Read-outs that look alike come from different tables or passages of the source.
Tested on: Klebsiella pneumoniae (KPN) isolates
Test: MIC of compounds alone and combined with antibacterials, broth microdilution (CLSI)
Assay type: cell-based
Settings: for MIC: Klebsiella pneumoniae, read-out: MIC
Procedure, shortened: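 Inoculum 5·10^5 CFU/mL (final), log phase, ca-MHB; 16-20 h, 35° C, ambient air. MIC = lowest conc. with no visible growth; ATB MIC read at each compound level.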

C=CC1=C(C(=O)O)N2C(=O)[C@@H](NC(=O)/C(=N\OCC(=O)O)c3csc(N)n3)[C@H]2SC1 [FIX, Cefixime]
MIC ATB in combination (KPN UFR27, AF1 @ 4 μg/mL): 16 µg/mL
MIC ATB in combination (KPN UFR27, AF1 @ 8 μg/mL): 2 µg/mL
MIC ATB in combination (KPN UFR28, AF1 @ 4 μg/mL): <=0.25 μg/mL
MIC ATB in combination (KPN UFR28, AF1 @ 8 μg/mL): <=0.25 μg/mL
MIC ATB in combination (KPN UFR65, AF1 @ 4 μg/mL): <=0.25 μg/mL
MIC ATB in combination (KPN UFR65, AF1 @ 8 μg/mL): <=0.25 μg/mL
MIC ATB in combination (KPN UFR66, AF1 @ 4 μg/mL): 1 µg/mL
MIC ATB in combination (KPN UFR66, AF1 @ 8 μg/mL): 0.25 µg/mL
MIC ATB in combination (KPN UFR67, AF1 @ 4 μg/mL): 2 µg/mL
MIC ATB in combination (KPN UFR67, AF1 @ 8 μg/mL): 0.5 µg/mL
MIC ATB in combination (KPN UFR68, AF1 @ 4 μg/mL): 1 µg/mL
MIC ATB in combination (KPN UFR68, AF1 @ 8 μg/mL): 0.25 µg/mL
MIC ATB in combination (KPN UFR77, AF1 @ 4 μg/mL): 16 µg/mL
MIC ATB in combination (KPN UFR77, AF1 @ 8 μg/mL): 8 µg/mL
MIC ATB in combination (KPN UFR78, AF1 @ 4 μg/mL): 128 µg/mL
MIC ATB in combination (KPN UFR78, AF1 @ 8 μg/mL): 32 µg/mL
MIC ATB in combination (KPN UFR79, AF1 @ 4 μg/mL): 16 µg/mL
MIC ATB in combination (KPN UFR79, AF1 @ 8 μg/mL): 4 µg/mL
MIC ATB in combination (KPN UFR80, AF1 @ 4 μg/mL): <=0.25 μg/mL
MIC ATB in combination (KPN UFR80, AF1 @ 8 μg/mL): <=0.25 μg/mL
MIC ATB in combination (KPN UFR81, AF1 @ 4 μg/mL): 16 µg/mL
MIC ATB in combination (KPN UFR81, AF1 @ 8 μg/mL): 2 µg/mL
MIC ATB in combination (KPN UFR215, AF1 @ 4 μg/mL): <=0.25 μg/mL
MIC ATB in combination (KPN UFR215, AF1 @ 8 μg/mL): <=0.25 μg/mL
MIC ATB in combination (KPN UFR216, AF1 @ 4 μg/mL): <=0.25 μg/mL
MIC ATB in combination (KPN UFR216, AF1 @ 8 μg/mL): <=0.25 μg/mL
MIC ATB in combination (KPN UFR217, AF1 @ 4 μg/mL): <=0.25 μg/mL
MIC ATB in combination (KPN UFR217, AF1 @ 8 μg/mL): <=0.25 μg/mL
MIC ATB in combination (KPN UFR219, AF1 @ 4 μg/mL): <=0.25 μg/mL
MIC ATB in combination (KPN UFR219, AF1 @ 8 μg/mL): <=0.25 μg/mL
MIC ATB in combination (KPN UFR220, AF1 @ 4 μg/mL): 4 µg/mL
MIC ATB in combination (KPN UFR220, AF1 @ 8 μg/mL): 2 µg/mL
MIC ATB in combination (KPN UFR221, AF1 @ 4 μg/mL): 2 µg/mL
MIC ATB in combination (KPN UFR221, AF1 @ 8 μg/mL): <=0.25 μg/mL
MIC ATB in combination (KPN UFR222, AF1 @ 4 μg/mL): 32 µg/mL
MIC ATB in combination (KPN UFR222, AF1 @ 8 μg/mL): 16 µg/mL
MIC ATB in combination (KPN UFR227O, AF1 @ 4 μg/mL): 1 µg/mL
MIC ATB in combination (KPN UFR227O, AF1 @ 8 μg/mL): 0.5 µg/mL
MIC (BAA1898, strain KPN BAA-1898 (TEM-1, SHV-11, SHV-12, KPC-2), ATB alone): > 128 µg/mL
MIC (BAA1898, strain KPN BAA-1898 (TEM-1, SHV-11, SHV-12, KPC-2), CLA @ 4 μg/ml+ ATB): 64 µg/mL
MIC (KPN 110376, alone): > 128 µg/mL
MIC (KPN 131119, alone): > 128 µg/mL
MIC (KPN 190270, alone): > 128 µg/mL
MIC (KPN UFR25, alone): > 128 µg/mL
MIC (KPN UFR66, alone): 512 µg/mL
MIC (KPN UFR68, alone): > 128 µg/mL
MIC (strain KPN 6299 (TEM-1, SHV-11, OXA-163), ATB alone): 8 µg/mL
MIC (strain KPN 6299 (TEM-1, SHV-11, OXA-163), CLA @ 4 μg/ml+ ATB): 8 µg/mL
MIC (strain KPN 110376 (TEM-1, SHV-1, CTX-M-15, OXA-1, OXA-48), ATB alone): > 128 µg/mL
MIC (strain KPN 110376 (TEM-1, SHV-1, CTX-M-15, OXA-1, OXA-48), CLA @ 4 μg/ml+ ATB): 128 µg/mL
MIC (strain KPN 131119 (TEM-1, SHV-11, CTX-M-15, OXA-1, OXA-48), ATB alone): > 128 µg/mL
MIC (strain KPN 131119 (TEM-1, SHV-11, CTX-M-15, OXA-1, OXA-48), CLA @ 4 μg/ml+ ATB): > 128 µg/mL
MIC (strain KPN 140513 (TEM-1, SHV-11, CTX-M-15, KPC-3), ATB alone): > 128 µg/mL
MIC (strain KPN 140513 (TEM-1, SHV-11, CTX-M-15, KPC-3), CLA @ 4 μg/ml+ ATB): > 128 µg/mL
MIC (strain KPN 160143 (TEM-1, SHV-1, CTX-M-15, KPC-2, OXA-1), ATB alone): > 128 µg/mL
MIC (strain KPN 160143 (TEM-1, SHV-1, CTX-M-15, KPC-2, OXA-1), CLA @ 4 μg/ml+ ATB): 2 µg/mL
MIC (strain KPN 190128 (TEM-1, SHV-32, CTX-M-15, OXA-1), ATB alone): > 128 µg/mL
MIC (strain KPN 190128 (TEM-1, SHV-32, CTX-M-15, OXA-1), CLA @ 4 μg/ml+ ATB): 0.5 µg/mL
MIC (strain KPN 190270 (TEM-1, SHV-76, CTX-M-15, OXA-1), ATB alone): > 128 µg/mL
MIC (strain KPN 190270 (TEM-1, SHV-76, CTX-M-15, OXA-1), CLA @ 4 μg/ml+ ATB): 1 µg/mL
MIC (strain KPN 190425 (TEM-1, SHV-1, CTX-M-15, OXA-1), ATB alone): > 128 µg/mL
MIC (strain KPN 190425 (TEM-1, SHV-1, CTX-M-15, OXA-1), CLA @ 4 μg/ml+ ATB): ≤ 0.25 µg/mL
MIC (strain KPN 190551 (TEM-1, SHV-1, CTX-M-15, OXA-1), ATB alone): > 128 µg/mL
MIC (strain KPN 190551 (TEM-1, SHV-1, CTX-M-15, OXA-1), CLA @ 4 μg/ml+ ATB): ≤ 0.25 µg/mL
MIC (strain KPN 200047 (TEM-1, SHV-32, CTX-M-15, OXA-1), ATB alone): > 128 µg/mL
MIC (strain KPN 200047 (TEM-1, SHV-32, CTX-M-15, OXA-1), CLA @ 4 μg/ml+ ATB): ≤ 0.25 µg/mL
MIC (strain KPN 200327 (TEM-1, SHV-1, CTX-M-15, OXA-1), ATB alone): 64 µg/mL
MIC (strain KPN 200327 (TEM-1, SHV-1, CTX-M-15, OXA-1), CLA @ 4 μg/ml+ ATB): ≤ 0.25 µg/mL
MIC (strain KPN 260251 (TEM-1, SHV-11, SHV-12, CTX-M-15, KPC-2), ATB alone): > 128 µg/mL
MIC (strain KPN 260251 (TEM-1, SHV-11, SHV-12, CTX-M-15, KPC-2), CLA @ 4 μg/ml+ ATB): 32 µg/mL
MIC (strain KPN 260252 (TEM-1, SHV-11, KPC-3), ATB alone): > 128 µg/mL
MIC (strain KPN 260252 (TEM-1, SHV-11, KPC-3), CLA @ 4 μg/ml+ ATB): 128 µg/mL
MIC (strain KPN 260376 (SHV-1, SHV-49, OXA-1), ATB alone): > 128 µg/mL
MIC (strain KPN 260376 (SHV-1, SHV-49, OXA-1), CLA @ 4 μg/ml+ ATB): ≤ 0.25 µg/mL
MIC (strain KPN 270077 (TEM-1, SHV-1, CTX-M-15), ATB alone): > 128 µg/mL
MIC (strain KPN 270077 (TEM-1, SHV-1, CTX-M-15), CLA @ 4 μg/ml+ ATB): 0.5 µg/mL
MIC (strain KPN 700603 (SHV-18, OXA-2), ATB alone): 16 µg/mL
MIC (strain KPN 700603 (SHV-18, OXA-2), CLA @ 4 μg/ml+ ATB): 0.5 µg/mL
MIC (strain KPN ARA (TEM-1, SHV-11, CTX-M-15, OXA-1, OXA-48), ATB alone): > 128 µg/mL
MIC (strain KPN ARA (TEM-1, SHV-11, CTX-M-15, OXA-1, OXA-48), CLA @ 4 μg/ml+ ATB): 128 µg/mL
MIC (strain KPN LIB (SHV-11, OXA-48), ATB alone): ≤ 0.25 µg/mL
MIC (strain KPN LIB (SHV-11, OXA-48), CLA @ 4 μg/ml+ ATB): ≤ 0.25 µg/mL
MIC (strain KPN UFR22_O (TEM-1, SHV-1, OXA-48), ATB alone): ≤ 0.25 µg/mL
MIC (strain KPN UFR22_O (TEM-1, SHV-1, OXA-48), CLA @ 4 μg/ml+ ATB): ≤ 0.25 µg/mL
MIC (strain KPN UFR23 (TEM-1, SHV-1, OXA-48), ATB alone): ≤ 0.25 µg/mL
MIC (strain KPN UFR23 (TEM-1, SHV-1, OXA-48), CLA @ 4 μg/ml+ ATB): ≤ 0.25 µg/mL
MIC (strain KPN UFR24 (TEM-1, SHV-2, SHV-11, OXA-1, OXA-48, OXA-47), ATB alone): > 128 µg/mL
MIC (strain KPN UFR24 (TEM-1, SHV-2, SHV-11, OXA-1, OXA-48, OXA-47), CLA @ 4 μg/ml+ ATB): 64 µg/mL
MIC (strain KPN UFR25 (TEM-1, SHV-11, CTX-M-15, OXA-162), ATB alone): > 128 µg/mL
